Source: patent US10597388B2, “Pyridazinone herbicides” (FMC CORPORATION, priority 2014, dated 2020)

Columns and labels:
Experiment in all cases: Test D controlled growth environment herbicide test, pre- and postemergence
Format in all cases: in vivo
[1] = system: barley, winter (winter barley, Hordeum vulgare)
In short: (§1)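 Rating is visual, 0–100 scale (100 = complete control), made against untreated plants 14–21 d after treatment in controlled growth conditions. Postemergence sprays went onto 1- to 4-leaf plants in peat medium; preemergence sprays onto silt loam after sowing; formulation included a surfactant.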

[2] = system: oilseed rape (Brassica napus)
In short: as §1

[3] = system: bromegrass, downy (downy bromegrass, Bromus tectorum)
In short: as §1

[4] = system: chamomile (scentless chamomile, Matricaria inodora)
In short: as §1

[5] = system: field poppy (Papaver rhoeas)
In short: as §1

[6] = system: canarygrass (Phalaris minor)
In short: as §1

[7] = system: buckwheat, wild (wild buckwheat, Polygonum convolvulus)
In short: as §1

[8] = system: galium (catchweed bedstraw, Galium aparine)
In short: as §1

[9] = system: chickweed (common chickweed, Stellaria media)
In short: as §1

[10] = system: blackgrass (Alopecurus myosuroides)
In short: as §1

[11] = system: speedwell (bird's-eye speedwell, Veronica persica)
In short: as §1

[12] = system: lambsquarters (Chenopodium album)
In short: as §1

[13] = system: ryegrass, Italian (Italian ryegrass, Lolium multiflorum)
In short: as §1

[14] = Postemergence, 31 g ai/ha, scale 0 to 100 (0 no effect, 100 complete control)
[15] = Postemergence, 125 g ai/ha, visual rating on scale 0 (no effect) to 100 (complete control), 14 to 21 d
[16] = Postemergence, 250 g ai/ha, scale 0 to 100 (0 no effect, 100 complete control)
[17] = Preemergence, 62 g ai/ha, scale 0 to 100 (0 no effect, 100 complete control)
[18] = Preemergence, 125 g ai/ha, scale 0 to 100 (0 no effect, 100 complete control)
[19] = Preemergence, 250 g ai/ha, scale 0 to 100 (0 no effect, 100 complete control)
[20] = postemergence, 62 g ai/ha, scale 0 to 100, 0 no effect, 100 complete control

Cc1ccc2ccccc2c1-c1c(O)c(C)nn(C)c1=O [Compound 59]
50: Plant response rating, Oilseed Rape [2, 18]
40: Plant response rating, Barley, Winter [1, 18]
70: Plant response rating, Oilseed Rape [2, 20] | Plant response rating, Bromegrass, Downy [3, 15] | Plant response rating, Bromegrass, Downy [3, 20] | Field Poppy plant response rating [5, 14] | Blackgrass plant response rating [10, 14]
30: Plant response rating, Barley, Winter [1, 20] | Plant response rating, Oilseed Rape [2, 17]
80: Plant response rating, Oilseed Rape [2, 19] | Chamomile plant response rating [4, 14] | Plant response rating, Chamomile [4, 20] | Plant response rating (scale of 0 to 100), Canarygrass ([6]; Preemergence, 31 g ai/ha) | Plant response rating, Canarygrass [6, 20] | Plant response rating, Blackgrass [10, 20] | Ryegrass, Italian plant response rating [13, 14]
20: Barley, Winter plant response rating [1, 14] | Plant response rating (scale of 0 to 100), Oilseed Rape ([2]; Preemergence, 31 g ai/ha) | Plant response rating (scale of 0 to 100), Buckwheat, Wild ([7]; Preemergence, 31 g ai/ha)
35: Bromegrass, Downy plant response rating [3, 14]
25: Plant response rating, Barley, Winter [1, 17]
95: Plant response rating, Bromegrass, Downy [3, 19] | Plant response rating, Chamomile [4, 17] | Plant response rating, Field Poppy [5, 15] | Plant response rating, Canarygrass [6, 18] | Plant response rating, Buckwheat, Wild [7, 19] | Plant response rating (scale of 0 to 100), Galium ([8]; Preemergence, 31 g ai/ha) | Plant response rating, Galium [8, 17] | Plant response rating, Blackgrass [10, 18] | Plant response rating, Lambsquarters [12, 16] | Plant response rating (scale of 0 to 100), Lambsquarters ([12]; Preemergence, 31 g ai/ha)
45: Plant response rating, Barley, Winter [1, 15] | Plant response rating, Barley, Winter [1, 19]
60: Plant response rating, Barley, Winter [1, 16] | Oilseed Rape plant response rating [2, 14]
98: Plant response rating, Chickweed [9, 20]
65: Buckwheat, Wild plant response rating [7, 14] | Plant response rating, Buckwheat, Wild [7, 17] | Speedwell plant response rating [11, 14]
85: Plant response rating, Oilseed Rape [2, 15] | Plant response rating, Bromegrass, Downy [3, 16] | Plant response rating, Bromegrass, Downy [3, 17] | Plant response rating, Chamomile [4, 15] | Plant response rating, Blackgrass [10, 15] | Plant response rating, Blackgrass [10, 16] | Plant response rating (scale of 0 to 100), Blackgrass ([10]; Preemergence, 31 g ai/ha) | Plant response rating, Lambsquarters [12, 20]
100: Plant response rating, Chamomile [4, 16] | Plant response rating (scale of 0 to 100), Chamomile ([4]; Preemergence, 31 g ai/ha) | Plant response rating, Chamomile [4, 18] | Plant response rating, Chamomile [4, 19] | Plant response rating, Field Poppy [5, 16] | Plant response rating (scale of 0 to 100), Field Poppy ([5]; Preemergence, 31 g ai/ha) | Plant response rating, Field Poppy [5, 17] | Plant response rating, Field Poppy [5, 18] | Plant response rating, Field Poppy [5, 19] | Plant response rating, Canarygrass [6, 19] | Plant response rating, Buckwheat, Wild [7, 15] | Plant response rating, Buckwheat, Wild [7, 16] | Plant response rating, Buckwheat, Wild [7, 18] | Plant response rating, Buckwheat, Wild [7, 20] | Galium plant response rating [8, 14] | Plant response rating, Galium [8, 15] | Plant response rating, Galium [8, 16] | Plant response rating, Galium [8, 18] | Plant response rating, Galium [8, 19] | Plant response rating, Galium [8, 20] | Chickweed plant response rating [9, 14] | Plant response rating, Chickweed [9, 15] | Plant response rating, Chickweed [9, 16] | Plant response rating (scale of 0 to 100), Chickweed ([9]; Preemergence, 31 g ai/ha) | Plant response rating, Chickweed [9, 17] | Plant response rating, Chickweed [9, 18] | Plant response rating, Chickweed [9, 19] | Plant response rating, Blackgrass [10, 19] | Plant response rating, Speedwell [11, 15] | Plant response rating, Speedwell [11, 16] | Plant response rating (scale of 0 to 100), Speedwell ([11]; Preemergence, 31 g ai/ha) | Plant response rating, Speedwell [11, 17] | Plant response rating, Speedwell [11, 18] | Plant response rating, Speedwell [11, 19] | Plant response rating, Speedwell [11, 20] | Plant response rating, Lambsquarters [12, 17] | Plant response rating, Lambsquarters [12, 18] | Plant response rating, Lambsquarters [12, 19] | Plant response rating (scale of 0 to 100), Ryegrass, Italian ([13]; Preemergence, 31 g ai/ha) | Plant response rating, Ryegrass, Italian [13, 17] | Plant response rating, Ryegrass, Italian [13, 18] | Plant response rating, Ryegrass, Italian [13, 19]
15: Plant response rating (scale of 0 to 100), Barley, Winter ([1]; Preemergence, 31 g ai/ha)
90: Plant response rating, Oilseed Rape [2, 16] | Plant response rating, Bromegrass, Downy [3, 18] | Plant response rating, Canarygrass [6, 15] | Plant response rating, Canarygrass [6, 16] | Plant response rating, Canarygrass [6, 17] | Plant response rating, Blackgrass [10, 17] | Lambsquarters plant response rating [12, 14] | Plant response rating, Lambsquarters [12, 15] | Plant response rating, Ryegrass, Italian [13, 15] | Plant response rating, Ryegrass, Italian [13, 16] | Plant response rating, Ryegrass, Italian [13, 20]
75: Plant response rating (scale of 0 to 100), Bromegrass, Downy ([3]; Preemergence, 31 g ai/ha) | Plant response rating, Field Poppy [5, 20] | Canarygrass plant response rating [6, 14]
